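96-well plates; 48 h exposure; 5 concentrations. Endpoints by linear interpolation between flanking doses. Not reached: highest tested concentration assigned. Abbreviation: GI50, concentration required for 50% inhibition of growth. The concentration for full growth arrest is given as TGI.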
What was measured:
Assay in all cases: NCI tumour cell line growth inhibition, 48 h
[1] = test system: DU-145 prostate
[2] = test system: A498 renal
[3] = test system: NCI-H226 lung
[4] = test system: A549 NSCLC
[5] = test system: SK-MEL-5 melanoma
[6] = test system: M14 melanoma
[7] = test system: HT29 colon
[8] = test system: IGROV1 ovarian
[9] = test system: SR leukemia
[10] = test system: EKVX NSCLC
[11] = test system: 786-0 renal
[12] = test system: CCRF-CEM leukemia
[13] = test system: MDA-MB-231 breast
[14] = test system: CAKI-1 renal
[15] = test system: HS 578T breast
[16] = test system: BT-549 breast
[17] = test system: U251 CNS
[18] = test system: COLO 205 colon
[19] = test system: ACHN renal
[20] = test system: OVCAR-8 ovarian
[21] = test system: NCI/ADR-RES ovarian
[22] = test system: NCI-H522 lung
[23] = test system: MDA-MB-435
[24] = test system: LOX IMVI melanoma
[25] = test system: UACC-62 melanoma
[26] = test system: SNB-19 CNS
[27] = test system: RPMI-8226 leukemia
[28] = test system: HCT-15 colon
[29] = test system: SK-MEL-2 melanoma
[30] = test system: T-47D breast
[31] = test system: OVCAR-3 ovarian
[32] = test system: HOP-62 NSCLC
[33] = test system: OVCAR-4 ovarian
[34] = test system: NCI-H460 lung
[35] = test system: MCF7 breast
[36] = test system: SN12C renal
[37] = test system: SNB-75 CNS
[38] = test system: SF-268 CNS
[39] = test system: SK-OV-3 ovarian
[40] = test system: K-562 leukemia
[41] = test system: MOLT-4 leukemia
[42] = test system: OVCAR-5 ovarian
[43] = test system: SF-539 CNS
[44] = test system: MALME-3M melanoma
[45] = test system: SF-295 CNS
[46] = test system: RXF 393 renal
[47] = test system: HOP-92 NSCLC
[48] = test system: SW-620 colon
[49] = test system: HL-60(TB) leukemia
[50] = test system: UO-31 renal
[51] = test system: SK-MEL-28 melanoma
[52] = test system: KM12 colon
[53] = test system: HCC-2998 colon
[54] = test system: HCT-116 colon
[55] = test system: UACC-257 melanoma
[56] = test system: NCI-H23 lung
[57] = test system: PC-3 prostate
[58] = test system: TK-10 renal
[59] = test system: MDA-N

O=C(Nc1n[nH]c2cc(-c3ccc(F)cc3)ccc12)C1CC1
GI50 [1]: 10.2 µM | TGI [1]: > 25 µM | GI50 [2]: 12.3 µM | TGI [2]: > 25 µM | GI50 [3]: 9.29 µM | TGI [3]: > 25 µM | GI50 [4]: 10.5 µM | TGI [4]: > 25 µM | GI50 [5]: 5.56 µM | TGI [5]: > 18.1 µM | GI50 [6]: 8.6 µM | TGI [6]: > 25 µM | GI50 [7]: 7.9 µM | TGI [7]: > 25 µM | GI50 [8]: > 21.8 µM | TGI [8]: > 25 µM | GI50 [9]: 2.76 µM | TGI [9]: > 25 µM | GI50 [10]: 12.2 µM | TGI [10]: > 25 µM | GI50 [11]: 17.7 µM | TGI [11]: > 25 µM | GI50 [12]: 8.77 µM | TGI [12]: > 25 µM | GI50 [13]: 12.6 µM | TGI [13]: > 25 µM | GI50 [14]: 9.75 µM | TGI [14]: > 25 µM | GI50 [15]: 10.7 µM | TGI [15]: > 25 µM | GI50 [16]: 12.4 µM | TGI [16]: > 25 µM | GI50 [17]: 10.2 µM | TGI [17]: > 25 µM | GI50 [18]: 8.12 µM | TGI [18]: > 18.8 µM | GI50 [19]: 16.8 µM | TGI [19]: > 25 µM | GI50 [20]: 12.8 µM | TGI [20]: > 25 µM | GI50 [21]: 5.27 µM | TGI [21]: 22.6 µM | GI50 [22]: 4.92 µM | TGI [22]: > 21.1 µM | GI50 [23]: 2.31 µM | TGI [23]: 12.1 µM | GI50 [24]: 10.7 µM | TGI [24]: > 25 µM | GI50 [25]: 12.6 µM | TGI [25]: > 25 µM | GI50 [26]: 12.6 µM | TGI [26]: > 25 µM | GI50 [27]: 8.44 µM | TGI [27]: > 25 µM | GI50 [28]: 5.7 µM | TGI [28]: > 25 µM | GI50 [29]: 7.16 µM | TGI [29]: > 21.9 µM | GI50 [30]: 6.37 µM | TGI [30]: > 21.7 µM | GI50 [31]: 6.33 µM | TGI [31]: 20 µM | GI50 [32]: 8.37 µM | TGI [32]: > 23.7 µM | GI50 [33]: 9.87 µM | TGI [33]: > 25 µM | GI50 [34]: 7.47 µM | TGI [34]: > 25 µM | GI50 [35]: 5.54 µM | TGI [35]: > 22.2 µM | GI50 [36]: 10.8 µM | TGI [36]: > 25 µM | GI50 [37]: 11.1 µM | TGI [37]: > 25 µM | GI50 [38]: 11 µM | TGI [38]: > 25 µM | GI50 [39]: 6.24 µM | TGI [39]: 20.3 µM | GI50 [40]: 3.69 µM | TGI [40]: > 25 µM | GI50 [41]: 10.4 µM | TGI [41]: > 25 µM | GI50 [42]: 14.8 µM | TGI [42]: > 25 µM | GI50 [43]: 11.2 µM | TGI [43]: > 25 µM | GI50 [44]: 9.79 µM | TGI [44]: > 25 µM | GI50 [45]: 9.07 µM | TGI [45]: 24.6 µM | GI50 [46]: 5.73 µM | TGI [46]: > 22.6 µM | GI50 [47]: 23.3 µM | TGI [47]: > 25 µM | GI50 [48]: 7.69 µM | TGI [48]: > 25 µM | GI50 [49]: 6.69 µM | TGI [49]: 22.3 µM | GI50 [50]: 3.74 µM | TGI [50]: > 25 µM | GI50 [51]: 12.3 µM | TGI [51]: > 25 µM | GI50 [52]: 4.11 µM | TGI [52]: > 25 µM | GI50 [53]: 8.27 µM | TGI [53]: > 25 µM | GI50 [54]: 8.89 µM | TGI [54]: > 25 µM | GI50 [55]: 14.1 µM | TGI [55]: > 25 µM | GI50 [56]: 7.18 µM | TGI [56]: > 25 µM | GI50 [57]: 7.98 µM | TGI [57]: > 25 µM | GI50 [58]: > 20.8 µM | TGI [58]: > 25 µM

CN(N=O)N1C(=O)SCC(c2ccccc2)(c2ccccc2)C1=O
TGI [1]: > 100 µM | TGI [2]: > 100 µM | TGI [3]: 52.7 µM | TGI [4]: > 100 µM | TGI [5]: > 100 µM | TGI [6]: > 100 µM | TGI [7]: > 100 µM | TGI [9]: > 100 µM | TGI [10]: > 100 µM | TGI [11]: > 100 µM | TGI [12]: > 100 µM | TGI [13]: > 100 µM | TGI [14]: > 100 µM | TGI [15]: > 100 µM | TGI [17]: > 100 µM | TGI [18]: > 100 µM | TGI [19]: > 100 µM | TGI [20]: 60.2 µM | TGI [21]: > 100 µM | TGI [22]: 91.1 µM | TGI [23]: 73.3 µM | TGI [24]: > 100 µM | TGI [25]: > 100 µM | TGI [26]: > 100 µM | TGI [27]: 67.6 µM | TGI [28]: > 100 µM | TGI [29]: 54.5 µM | TGI [30]: > 100 µM | TGI [59]: > 100 µM | TGI [31]: > 100 µM | TGI [32]: > 100 µM | TGI [34]: > 100 µM | TGI [35]: 62.2 µM | TGI [36]: > 100 µM | TGI [37]: 82.2 µM | TGI [38]: > 100 µM | TGI [39]: 64.6 µM | TGI [40]: > 100 µM | TGI [41]: > 100 µM | TGI [42]: > 100 µM | TGI [43]: 65.5 µM | TGI [44]: > 100 µM | TGI [45]: > 100 µM | TGI [46]: 59.2 µM | TGI [47]: > 100 µM | TGI [48]: > 100 µM | TGI [49]: > 100 µM | TGI [50]: > 100 µM | TGI [51]: > 100 µM | TGI [52]: > 100 µM | TGI [53]: > 100 µM | TGI [54]: > 100 µM | TGI [55]: > 100 µM | TGI [56]: > 100 µM | TGI [57]: > 100 µM | TGI [58]: > 100 µM

O=C(O)C(=Cc1ccc(-c2ccc([N+](=O)[O-])cc2)o1)C(=O)O
TGI [1]: > 100 µM | TGI [2]: > 100 µM | TGI [3]: > 100 µM | TGI [4]: > 100 µM | TGI [5]: > 100 µM | TGI [6]: > 100 µM | TGI [7]: > 100 µM | TGI [8]: > 100 µM | TGI [9]: > 100 µM | TGI [10]: > 100 µM | TGI [11]: > 100 µM | TGI [12]: > 100 µM | TGI [13]: > 100 µM | TGI [14]: > 100 µM | TGI [15]: > 100 µM | TGI [16]: > 100 µM | TGI [17]: > 100 µM | TGI [18]: > 100 µM | TGI [19]: > 100 µM | TGI [20]: > 100 µM | TGI [21]: > 100 µM | TGI [22]: > 100 µM | TGI [23]: > 100 µM | TGI [24]: > 100 µM | TGI [25]: > 100 µM | TGI [26]: > 100 µM | TGI [27]: > 100 µM | TGI [28]: > 100 µM | TGI [29]: > 100 µM | TGI [59]: > 100 µM | TGI [31]: > 100 µM | TGI [32]: > 100 µM | TGI [34]: > 100 µM | TGI [35]: > 100 µM | TGI [36]: > 100 µM | TGI [37]: > 100 µM | TGI [38]: > 100 µM | TGI [39]: > 100 µM | TGI [40]: > 100 µM | TGI [41]: > 100 µM | TGI [42]: > 100 µM | TGI [43]: > 100 µM | TGI [44]: > 100 µM | TGI [45]: > 100 µM | TGI [46]: > 100 µM | TGI [48]: > 100 µM | TGI [50]: > 100 µM | TGI [51]: > 100 µM | TGI [52]: > 100 µM | TGI [53]: > 100 µM | TGI [54]: > 100 µM | TGI [55]: > 100 µM | TGI [56]: > 100 µM | TGI [57]: > 100 µM | TGI [58]: > 100 µM
